Measurements from ChEMBL document CHEMBL5303766, “Data for DCP probe FHT-2344” (2022).

Key:
[1] = biological target: T1, Dual specificity mitogen-activated protein kinase kinase 4 (Homo sapiens) (UniProt P45985); experiment: MAP2K4 SGC Tm panel (DSF); details: for ΔTm: Compound concentration 10.0 uM
T1 sequence (whole entry): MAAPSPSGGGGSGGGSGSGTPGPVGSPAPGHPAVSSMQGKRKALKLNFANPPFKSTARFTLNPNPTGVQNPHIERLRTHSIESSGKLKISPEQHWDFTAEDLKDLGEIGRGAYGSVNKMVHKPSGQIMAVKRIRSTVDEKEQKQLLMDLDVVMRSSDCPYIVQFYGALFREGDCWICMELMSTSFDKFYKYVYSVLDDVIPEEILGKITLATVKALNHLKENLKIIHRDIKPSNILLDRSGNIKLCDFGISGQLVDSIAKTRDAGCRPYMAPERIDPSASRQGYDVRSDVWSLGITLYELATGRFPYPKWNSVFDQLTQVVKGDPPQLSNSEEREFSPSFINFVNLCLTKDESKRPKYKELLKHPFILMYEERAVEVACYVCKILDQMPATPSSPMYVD

[2] = biological target: T2, Dual specificity protein kinase TTK (Homo sapiens) (UniProt P33981); experiment: TTK SGC Tm panel (DSF); details: for ΔTm: Compound concentration 10.0 uM
T2 sequence (whole entry): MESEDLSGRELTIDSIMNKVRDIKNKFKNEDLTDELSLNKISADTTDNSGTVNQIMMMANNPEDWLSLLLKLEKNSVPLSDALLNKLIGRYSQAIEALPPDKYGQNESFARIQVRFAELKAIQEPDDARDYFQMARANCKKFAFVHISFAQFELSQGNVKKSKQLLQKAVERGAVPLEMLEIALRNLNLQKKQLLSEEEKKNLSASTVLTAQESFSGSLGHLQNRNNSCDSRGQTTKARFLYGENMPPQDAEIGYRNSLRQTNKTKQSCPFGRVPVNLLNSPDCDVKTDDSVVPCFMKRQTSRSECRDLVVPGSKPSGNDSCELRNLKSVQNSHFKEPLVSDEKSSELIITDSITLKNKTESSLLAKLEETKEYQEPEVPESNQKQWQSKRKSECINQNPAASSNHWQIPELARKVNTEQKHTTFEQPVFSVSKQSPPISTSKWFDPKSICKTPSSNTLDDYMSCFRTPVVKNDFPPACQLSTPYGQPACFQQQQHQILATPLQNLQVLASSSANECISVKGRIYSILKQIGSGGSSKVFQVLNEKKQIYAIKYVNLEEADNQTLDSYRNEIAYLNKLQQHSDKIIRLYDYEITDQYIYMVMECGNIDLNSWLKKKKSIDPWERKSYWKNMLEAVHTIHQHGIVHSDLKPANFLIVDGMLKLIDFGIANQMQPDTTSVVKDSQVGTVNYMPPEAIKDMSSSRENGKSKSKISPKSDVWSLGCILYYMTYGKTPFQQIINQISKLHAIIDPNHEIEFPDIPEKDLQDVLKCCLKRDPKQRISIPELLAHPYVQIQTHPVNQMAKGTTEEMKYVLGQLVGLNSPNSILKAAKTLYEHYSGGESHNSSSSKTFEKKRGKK

[3] = biological target: Serine/threonine-protein kinase 26 (Homo sapiens) (UniProt Q9P289); experiment: MST4 SGC Tm panel (DSF); details: for ΔTm: Compound concentration 10.0 uM
[4] = biological target: Histamine H2 receptor (Homo sapiens) (UniProt P25021); details: Compound concentration 10.0 uM
[5] = biological target: Sodium-dependent serotonin transporter (Homo sapiens) (UniProt P31645); details: Compound concentration 10.0 uM
[6] = biological target: RAC-gamma serine/threonine-protein kinase (Homo sapiens) (UniProt Q9Y243); experiment: AKT3 SGC Tm panel (DSF); details: for ΔTm: Compound concentration 10.0 uM
[7] = biological target: Calcium/calmodulin-dependent protein kinase type 1G (Homo sapiens) (UniProt Q96NX5); experiment: CAMK1G SGC Tm panel (DSF); details: for ΔTm: Compound concentration 10.0 uM
[8] = biological target: BMP-2-inducible protein kinase (Homo sapiens) (UniProt Q9NSY1); experiment: BMP2K SGC Tm panel (DSF); details: for ΔTm: Compound concentration 10.0 uM
[9] = biological target: Cyclin-dependent kinase 16 (Homo sapiens) (UniProt Q00536); experiment: PCTK1 SGC Tm panel (DSF); details: for ΔTm: Compound concentration 10.0 uM
[10] = biological target: SRSF protein kinase 1 (Homo sapiens) (UniProt Q96SB4); experiment: SRPK1 SGC Tm panel (DSF); details: for ΔTm: Compound concentration 10.0 uM
[11] = biological target: T3, Peripheral plasma membrane protein CASK (Homo sapiens) (UniProt O14936); experiment: CASK SGC Tm panel (DSF); details: for ΔTm: Compound concentration 10.0 uM
T3 sequence (whole entry): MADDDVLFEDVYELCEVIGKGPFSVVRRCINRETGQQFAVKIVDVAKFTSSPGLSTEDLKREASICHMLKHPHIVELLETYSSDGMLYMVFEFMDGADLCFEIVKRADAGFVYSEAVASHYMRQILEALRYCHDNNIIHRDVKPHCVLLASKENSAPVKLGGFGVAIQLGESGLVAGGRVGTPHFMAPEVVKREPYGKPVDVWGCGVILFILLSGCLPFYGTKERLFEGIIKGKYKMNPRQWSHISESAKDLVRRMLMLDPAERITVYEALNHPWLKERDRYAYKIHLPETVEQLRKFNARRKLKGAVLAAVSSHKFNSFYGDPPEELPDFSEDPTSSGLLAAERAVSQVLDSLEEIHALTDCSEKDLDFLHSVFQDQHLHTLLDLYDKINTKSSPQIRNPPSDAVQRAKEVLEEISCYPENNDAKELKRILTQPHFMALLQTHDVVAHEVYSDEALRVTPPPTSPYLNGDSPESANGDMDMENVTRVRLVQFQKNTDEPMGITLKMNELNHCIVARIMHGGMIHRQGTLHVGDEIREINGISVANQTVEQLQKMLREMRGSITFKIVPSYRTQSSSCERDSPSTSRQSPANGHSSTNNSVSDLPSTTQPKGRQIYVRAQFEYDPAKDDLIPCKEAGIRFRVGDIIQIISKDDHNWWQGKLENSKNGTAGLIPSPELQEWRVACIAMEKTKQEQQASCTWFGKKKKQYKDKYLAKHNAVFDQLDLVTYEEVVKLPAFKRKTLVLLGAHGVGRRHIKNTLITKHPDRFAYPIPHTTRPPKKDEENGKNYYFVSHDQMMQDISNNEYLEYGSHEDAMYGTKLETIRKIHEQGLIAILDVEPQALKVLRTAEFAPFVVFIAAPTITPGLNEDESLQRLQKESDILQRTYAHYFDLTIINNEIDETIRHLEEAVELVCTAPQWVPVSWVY

Chain of SRSF protein kinase 1 (Homo sapiens) (Q96SB4 whole entry): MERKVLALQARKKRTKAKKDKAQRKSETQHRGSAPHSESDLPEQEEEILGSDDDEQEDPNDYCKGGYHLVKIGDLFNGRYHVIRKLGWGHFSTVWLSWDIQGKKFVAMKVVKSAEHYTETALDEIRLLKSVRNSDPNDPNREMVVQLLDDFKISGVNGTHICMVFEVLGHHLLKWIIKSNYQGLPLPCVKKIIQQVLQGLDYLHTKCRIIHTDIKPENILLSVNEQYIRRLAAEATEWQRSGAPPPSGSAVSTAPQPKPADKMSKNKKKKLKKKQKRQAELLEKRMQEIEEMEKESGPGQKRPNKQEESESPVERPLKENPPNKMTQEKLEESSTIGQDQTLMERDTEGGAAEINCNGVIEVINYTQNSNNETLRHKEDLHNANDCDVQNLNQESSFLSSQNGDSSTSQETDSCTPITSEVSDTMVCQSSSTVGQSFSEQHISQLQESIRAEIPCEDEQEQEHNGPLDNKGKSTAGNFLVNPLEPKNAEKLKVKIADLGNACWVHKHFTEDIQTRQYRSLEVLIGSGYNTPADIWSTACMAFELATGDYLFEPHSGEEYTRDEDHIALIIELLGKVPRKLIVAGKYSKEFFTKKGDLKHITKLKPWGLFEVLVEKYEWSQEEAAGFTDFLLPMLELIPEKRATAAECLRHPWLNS
Chain of RAC-gamma serine/threonine-protein kinase (Homo sapiens) (Q9Y243 whole entry): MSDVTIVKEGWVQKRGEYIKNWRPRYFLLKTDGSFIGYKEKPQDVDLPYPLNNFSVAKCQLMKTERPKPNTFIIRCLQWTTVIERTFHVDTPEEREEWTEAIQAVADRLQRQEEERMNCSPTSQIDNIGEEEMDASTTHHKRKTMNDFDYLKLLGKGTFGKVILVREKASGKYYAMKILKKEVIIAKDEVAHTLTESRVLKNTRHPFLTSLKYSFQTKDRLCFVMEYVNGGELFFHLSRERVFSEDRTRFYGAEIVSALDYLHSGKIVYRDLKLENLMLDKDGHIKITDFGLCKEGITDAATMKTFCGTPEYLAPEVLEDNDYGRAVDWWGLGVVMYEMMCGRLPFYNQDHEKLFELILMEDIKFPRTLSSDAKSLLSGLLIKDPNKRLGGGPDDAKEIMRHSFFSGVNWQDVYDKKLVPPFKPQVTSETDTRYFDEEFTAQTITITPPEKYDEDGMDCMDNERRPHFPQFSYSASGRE
Chain of BMP-2-inducible protein kinase (Homo sapiens) (Q9NSY1 whole entry, looked up): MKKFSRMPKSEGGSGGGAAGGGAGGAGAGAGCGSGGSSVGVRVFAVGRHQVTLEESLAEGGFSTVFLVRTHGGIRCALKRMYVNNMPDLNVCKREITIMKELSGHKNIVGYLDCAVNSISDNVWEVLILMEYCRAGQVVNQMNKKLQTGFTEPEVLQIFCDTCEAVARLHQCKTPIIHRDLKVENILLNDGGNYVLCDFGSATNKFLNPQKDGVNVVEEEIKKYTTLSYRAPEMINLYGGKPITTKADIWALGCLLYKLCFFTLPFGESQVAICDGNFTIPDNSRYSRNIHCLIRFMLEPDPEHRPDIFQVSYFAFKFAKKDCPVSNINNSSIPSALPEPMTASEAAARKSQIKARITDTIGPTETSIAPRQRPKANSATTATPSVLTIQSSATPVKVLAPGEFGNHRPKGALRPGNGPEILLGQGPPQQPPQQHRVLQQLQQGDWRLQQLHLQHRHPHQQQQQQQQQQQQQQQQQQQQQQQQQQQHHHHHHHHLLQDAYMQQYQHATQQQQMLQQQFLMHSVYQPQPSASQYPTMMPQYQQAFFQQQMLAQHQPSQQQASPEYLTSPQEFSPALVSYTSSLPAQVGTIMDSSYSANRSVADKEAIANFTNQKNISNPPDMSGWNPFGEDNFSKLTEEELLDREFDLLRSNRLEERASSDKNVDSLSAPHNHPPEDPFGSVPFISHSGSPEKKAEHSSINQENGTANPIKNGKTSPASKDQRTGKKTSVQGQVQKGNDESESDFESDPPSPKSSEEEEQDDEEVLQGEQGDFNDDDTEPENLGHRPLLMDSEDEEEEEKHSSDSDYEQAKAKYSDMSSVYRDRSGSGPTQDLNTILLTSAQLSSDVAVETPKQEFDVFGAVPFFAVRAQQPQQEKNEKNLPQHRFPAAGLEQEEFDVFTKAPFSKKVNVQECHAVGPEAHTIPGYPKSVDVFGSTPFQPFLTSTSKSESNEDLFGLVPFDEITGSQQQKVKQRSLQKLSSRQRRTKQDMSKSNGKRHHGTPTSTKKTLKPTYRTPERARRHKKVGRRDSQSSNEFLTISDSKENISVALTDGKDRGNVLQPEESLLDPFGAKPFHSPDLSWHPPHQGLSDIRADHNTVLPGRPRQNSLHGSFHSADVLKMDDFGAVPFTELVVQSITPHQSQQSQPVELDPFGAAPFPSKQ
Chain of Calcium/calmodulin-dependent protein kinase type 1G (Homo sapiens) (Q96NX5 whole entry): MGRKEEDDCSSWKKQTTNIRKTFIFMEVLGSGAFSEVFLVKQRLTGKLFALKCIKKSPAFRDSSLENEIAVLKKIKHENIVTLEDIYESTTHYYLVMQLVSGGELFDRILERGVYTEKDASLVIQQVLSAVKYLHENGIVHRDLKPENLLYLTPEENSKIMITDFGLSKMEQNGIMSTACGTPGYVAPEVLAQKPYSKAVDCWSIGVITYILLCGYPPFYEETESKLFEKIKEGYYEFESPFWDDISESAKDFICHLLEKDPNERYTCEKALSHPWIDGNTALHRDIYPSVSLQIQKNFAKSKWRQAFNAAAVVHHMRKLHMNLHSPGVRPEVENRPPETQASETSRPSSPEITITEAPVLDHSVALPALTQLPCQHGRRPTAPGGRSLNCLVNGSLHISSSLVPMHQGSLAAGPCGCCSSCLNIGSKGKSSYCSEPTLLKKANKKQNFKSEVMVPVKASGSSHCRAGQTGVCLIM
Chain of Cyclin-dependent kinase 16 (Homo sapiens) (Q00536 whole entry): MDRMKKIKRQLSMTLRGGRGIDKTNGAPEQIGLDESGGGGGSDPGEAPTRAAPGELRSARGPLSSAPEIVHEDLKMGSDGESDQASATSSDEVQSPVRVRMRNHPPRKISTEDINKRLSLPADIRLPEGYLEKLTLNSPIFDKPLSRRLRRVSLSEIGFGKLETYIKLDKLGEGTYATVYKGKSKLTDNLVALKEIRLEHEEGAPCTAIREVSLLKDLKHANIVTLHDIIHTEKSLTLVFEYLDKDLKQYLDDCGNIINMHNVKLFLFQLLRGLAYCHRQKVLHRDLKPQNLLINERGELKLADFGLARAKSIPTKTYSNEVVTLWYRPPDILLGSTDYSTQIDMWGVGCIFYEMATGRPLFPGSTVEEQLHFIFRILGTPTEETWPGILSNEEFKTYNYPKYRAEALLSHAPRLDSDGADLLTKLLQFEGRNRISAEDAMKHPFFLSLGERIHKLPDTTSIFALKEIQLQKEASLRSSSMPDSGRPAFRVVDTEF
Chain of Serine/threonine-protein kinase 26 (Homo sapiens) (Q9P289 2-416 limits assumed): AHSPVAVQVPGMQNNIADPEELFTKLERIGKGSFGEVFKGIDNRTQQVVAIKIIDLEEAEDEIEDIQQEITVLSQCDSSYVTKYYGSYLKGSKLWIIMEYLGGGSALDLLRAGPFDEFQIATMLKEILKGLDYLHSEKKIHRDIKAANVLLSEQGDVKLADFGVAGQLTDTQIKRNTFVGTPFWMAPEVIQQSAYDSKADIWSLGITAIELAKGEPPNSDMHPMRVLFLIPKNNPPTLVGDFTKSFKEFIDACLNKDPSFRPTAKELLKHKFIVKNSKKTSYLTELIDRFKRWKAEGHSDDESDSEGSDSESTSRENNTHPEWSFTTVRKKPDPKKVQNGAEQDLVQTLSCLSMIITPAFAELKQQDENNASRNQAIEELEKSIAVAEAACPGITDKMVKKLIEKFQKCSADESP
Chain of Sodium-dependent serotonin transporter (Homo sapiens) (P31645 whole entry, looked up): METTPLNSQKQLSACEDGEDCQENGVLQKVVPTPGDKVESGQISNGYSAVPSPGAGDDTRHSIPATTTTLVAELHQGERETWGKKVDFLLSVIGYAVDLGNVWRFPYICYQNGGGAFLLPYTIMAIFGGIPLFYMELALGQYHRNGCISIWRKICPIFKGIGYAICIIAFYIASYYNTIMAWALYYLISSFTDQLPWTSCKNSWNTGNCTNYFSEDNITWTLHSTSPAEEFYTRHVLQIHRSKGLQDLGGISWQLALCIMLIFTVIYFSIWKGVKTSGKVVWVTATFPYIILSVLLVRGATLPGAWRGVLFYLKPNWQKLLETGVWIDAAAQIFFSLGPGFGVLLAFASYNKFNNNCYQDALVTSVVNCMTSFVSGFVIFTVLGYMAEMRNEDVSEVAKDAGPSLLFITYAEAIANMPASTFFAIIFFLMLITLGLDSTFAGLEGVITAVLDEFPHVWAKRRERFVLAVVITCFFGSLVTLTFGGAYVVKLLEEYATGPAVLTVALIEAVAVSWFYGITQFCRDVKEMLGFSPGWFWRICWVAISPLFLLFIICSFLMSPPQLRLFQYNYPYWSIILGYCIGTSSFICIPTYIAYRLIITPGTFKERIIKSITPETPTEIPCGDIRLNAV
Chain of Histamine H2 receptor (Homo sapiens) (P25021 whole entry): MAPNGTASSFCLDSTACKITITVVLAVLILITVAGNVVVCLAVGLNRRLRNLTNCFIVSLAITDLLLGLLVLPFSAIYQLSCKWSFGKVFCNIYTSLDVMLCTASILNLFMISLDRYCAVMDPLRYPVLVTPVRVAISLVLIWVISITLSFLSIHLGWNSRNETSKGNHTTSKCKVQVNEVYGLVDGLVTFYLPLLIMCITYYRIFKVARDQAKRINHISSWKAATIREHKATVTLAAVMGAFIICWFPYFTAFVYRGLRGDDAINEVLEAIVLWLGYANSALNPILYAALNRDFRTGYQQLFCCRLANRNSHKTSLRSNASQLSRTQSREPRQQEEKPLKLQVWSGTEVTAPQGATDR

Row | delta Tm Staurosporine positive control [1] | ΔTm [1] | delta Tm Staurosporine positive control [2] | ΔTm [2] | delta Tm Staurosporine positive control [3] | ΔTm [3] | inhibition [4] [%] | inhibition [5] [%] | delta Tm Staurosporine positive control [6] | ΔTm [6] | delta Tm Staurosporine positive control [7] | ΔTm [7] | delta Tm Staurosporine positive control [8] | ΔTm [8] | delta Tm Staurosporine positive control [9] | ΔTm [9] | delta Tm Staurosporine positive control [10] | ΔTm [10] | delta Tm Staurosporine positive control [11] | ΔTm [11] | SMILES
1 | 10.8 | 0.342 | 8.8 | -0.371 | 6.93 | -1.33 | 4.24 | 17.3 | 7.03 | 0.193 | 13.3 | 0.371 | 18.7 | 0.335 | 7.03 | -1.44 | 7.14 | 0.0203 | 4.91 | 0.617 | C[C@H](NC(=O)c1cn(C2(C#N)CC2)cn1)C(=O)Nc1nc(-c2cccc(-c3ccn(C)n3)c2)cs1
2 | 10.8 | 0.427 | 8.8 | -1.35 | 6.93 | -1.14 | 22.6 | 27.5 | 7.03 | 0.0196 | 13.3 | -0.0351 | 18.7 | 0.214 | 7.03 | -1.23 | 7.14 | 0.728 | 4.91 | 0.501 | COC[C@H](NC(=O)c1ccn(S(C)(=O)=O)c1)C(=O)Nc1nc(-c2cccc(-c3ccn(C)n3)c2)cs1
